In US11065234B2, “Estrogen receptor modulators” (Recurium IP Holdings, LLC, priority 2016, dated 2021):

Legend:
[1] = system: MCF7; experiment: Breast Cancer Cell Proliferation Assay (MCF-7); assay type: cell-based; details: Homo sapiens, 120 h; MCF7 cells, 5 days of compound exposure, Cell Titer-Glo
Procedure: Breast Cancer Cell Proliferation Assay (MCF-7)
MCF7 was expanded and maintained in the medium (Phenol red free DMEM/F12 (Hyclone SH30272.01) NEAA (Gibco11140-050) Na-pyruvate (Gibco 11360-070) and Re-stripped Charcoal stripped FBS (Gemini 100-119)). The cells were adjusted to a concentration of 3,000 cells per mL in the above media, and the cells were incubated (37° C., 5% CO2). The following day a 10 point, serial dilution of compounds was added to the cells at a final concentration ranging from 10-0.000005 μM for test compounds (17β-estradiol was used as a control). Additional cells were plated in 30 wells to serve as the day 1 (pretreatment) comparison. After 5 days of compound exposure, Cell Titer-Glo reagent was added to the cells and the relative luminescence units (RLUs) of each well was determined. Cell Titer-Glo was also added to 32 μL of medium without cells to obtain a background value. The plates were allowed to incubate at room temperature for 10 minutes to stabilize luminescent signal and the luminescence signal was recorded with EnSpire. The relative increase in cell number of each sample is determined as follows: (RLU sample-RLU background/RLU estrogen only treated cells-RLU background)×100=% inhibition.

[2] = target: T1, ERα (Homo sapiens, UniProt P03372); experiment: ER Degradation Determination by Western Blot; assay type: cell-based; details: MCF-7 cells, 10 μM, 18-24 hours
T1 construct: endogenous in cells; host or cells: MCF-7
T1 sequence (P03372 1-595): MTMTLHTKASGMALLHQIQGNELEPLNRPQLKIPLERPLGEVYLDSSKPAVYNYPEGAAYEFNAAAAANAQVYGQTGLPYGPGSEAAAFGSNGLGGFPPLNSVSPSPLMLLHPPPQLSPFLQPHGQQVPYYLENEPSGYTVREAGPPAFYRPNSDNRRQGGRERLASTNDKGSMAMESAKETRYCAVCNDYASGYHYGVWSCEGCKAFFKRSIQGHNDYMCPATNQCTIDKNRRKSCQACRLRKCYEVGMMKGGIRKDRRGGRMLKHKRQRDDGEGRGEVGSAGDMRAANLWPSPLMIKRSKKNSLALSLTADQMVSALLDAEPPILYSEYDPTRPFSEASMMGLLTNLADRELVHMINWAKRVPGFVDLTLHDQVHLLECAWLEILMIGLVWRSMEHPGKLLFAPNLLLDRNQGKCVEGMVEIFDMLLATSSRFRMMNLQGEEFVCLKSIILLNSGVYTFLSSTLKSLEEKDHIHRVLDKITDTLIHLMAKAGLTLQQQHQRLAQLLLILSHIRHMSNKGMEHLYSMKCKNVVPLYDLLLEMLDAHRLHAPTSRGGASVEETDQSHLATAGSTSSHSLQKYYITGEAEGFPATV
Procedure: ER Degradation Determination by Western Blot
MCF-7 cells are plated at 0.3 million cells/mL (3 mL/well) in 6-well plates in experiment media and incubated at 37° C., 5% CO2 for […]. Next day, 10× solution of compounds are made in DMSO and added the solution to the cells to achieve a final concentration of 10 μM. A DMSO control is included to enable a determination of the relative efficacy of test compounds. Fulvestrant is used as a positive control for ER-alpha degradation, and 4-OH tamoxifen as a control for receptor stabilization. After incubating cells with compounds for 18-24 hours, cell lysates are prepared (2× Cell lysis buffer:100 mM Tris, pH 8, 300 mM NaCl, 2% NP40, 1% Na deoxycholate, 0.04% SDS, 2 mM EDTA) and mixed thoroughly and incubated on ice. The protein concentration is quantified using BCA kit. […] The gel was then transferred onto a nitrocellulose membrane. […] GAPDH protein was used as an internal control.

[3] = Pharmacokinetic Determination (Rat PK); assay type: in vivo; details: plasma, female SD rats
Procedure: Example D Pharmacokinetic Determination
Grouping female SD rats weighing 200-300 g randomly to two groups; one group was administered with test compound at a dose of 3.0 mg/kg by intravenous injection, the other group was administered with test compound at a dose of 10.0 mg/kg by oral. The formulation for IV groups is DMSO/PEG400/150 mM glycine (pH 9) (5/10/85) and the formulation for PO groups is PEG400/PVP/Tween 80/0.5% CMC in water (9/0.5/0.5/90). After administering, blood samples of intravenous injection group were collected at time points of predose, 0.0833, 0.25, 0.5, 1, 2, 4, 8, 12 and 24 h; blood samples of oral group were collected at time points of predose, 0.25, 0.5, 1, 2, 4, 8, 12, and 24 h. Standard curve was plotted based on concentrations of the samples in a suitable range, the concentrations of test compounds in plasma samples were determined by using LC-MS/MS. Pharmacokinetic parameters were calculated according to drug concentration-time curve using a noncompartmental method by WinNonLin (Phoenix™, version 6.1) or other similar software.

SMILES	IC50 [1]	further results
C[C@@H]1Cc2c([nH]c3ccccc23)[C@@H](c2c(F)cc(/C=C/C(=O)O)cc2F)N1C12CC(C(F)(F)F)(C1)C2 (single isomer, unassigned) [Example 4A]	25 to 250 nM	ERα % degradation [2]: A (A = ERα % degradation ≥80%)
C[C@@H]1Cc2c([nH]c3ccccc23)[C@@H](c2c(F)cc(/C=C/C(=O)O)cc2F)N1C1CC(F)(F)C1 (single isomer, unassigned) [Example 9A]	25 to 250 nM	ERα % degradation [2]: A (A = ERα % degradation ≥80%)
C[C@H]1Cc2c([nH]c3ccc(O)cc23)[C@H](c2c(F)cc(/C=C/C(=O)O)cc2F)N1CC(C)(C)F (single isomer, unassigned) [Example 13A]	25 to 250 nM	
CC[C@@H]1Cc2c([nH]c3ccccc23)[C@@H](c2c(F)cc(/C=C/C(=O)O)cc2F)N1[C@@H]1CCOC1 (single isomer, unassigned) [Example 23B]	25 to 250 nM	
CC[C@@H]1Cc2c([nH]c3ccccc23)[C@@H](c2c(F)cc(/C=C/C(=O)O)cc2F)N1C12CC(C1)C2 (single isomer, unassigned) [Example 25A]	≥ 250 nM	
C[C@@H]1Cc2c([nH]c3ccccc23)[C@@H](c2c(F)cc(/C=C/C(=O)O)cc2F)N1C1CCOCC1 [Example 6A, (E)-3-(3,5-Difluoro-4-((1R,3R)-3-methyl-2-(tetrahydro-2H-pyran-4-yl)-2,3,4,9-tetrahydro-1H-pyrido[3,4-b]indol-1-yl)phenyl)acrylic acid]		ERα % degradation [2]: B (B = ERα % degradation <80%)
C[C@@H]1Cc2c([nH]c3ccccc23)[C@@H](c2c(F)cc(/C=C/C(=O)O)cc2F)N1[C@@H]1CCOC1 [Example 8B, (E)-3-(3,5-Difluoro-4-((1R,3R)-3-methyl-2-((R)-tetrahydrofuran-3-yl)-2,3,4,9-tetrahydro-1H-pyrido[3,4-b]indol-1-yl)phenyl)acrylic acid]	25 to 250 nM	ERα % degradation [2]: B (B = ERα % degradation <80%)
C[C@@H]1Cc2c([nH]c3ccccc23)[C@H](c2c(F)cc(/C=C/C(=O)O)cc2F)N1C12CC(C1)C2 [Example 11C, (E)-3-(4-((1S,3R)-2-(Bicyclo[1.1.1]pentan-1-yl)-3-methyl-2,3,4,9-tetrahydro-1H-pyrido[3,4-b]indol-1-yl)-3,5-difluorophenyl)acrylic acid]	≥ 250 nM	
C[C@@H]1Cc2c([nH]c3ccccc23)[C@@H](c2c(F)cc(/C=C/C(=O)O)cc2F)N1CC1COC1 [Example 17A]	25 to 250 nM	
CC1(C)Cc2c([nH]c3ccccc23)C(c2c(F)cc(/C=C/C(=O)O)cc2F)N1CC12CC(C1)C2 (stereo not shown) [Example 22, (E)-3-(4-(2-(Bicyclo[1.1.1]pentan-1-ylmethyl)-3,3-dimethyl-2,3,4,9-tetrahydro-1H-pyrido[3,4-b]indol-1-yl)-3,5-difluorophenyl)acrylic acid]	25 to 250 nM	
CCC1Cc2c([nH]c3ccccc23)C(c2c(F)cc(/C=C/C(=O)O)cc2F)N1CC12CC(C1)C2 (stereo not shown) [Example 24, (E)-3-(4-(2-(Bicyclo[1.1.1]pentan-1-ylmethyl)-3-ethyl-2,3,4,9-tetrahydro-1H-pyrido[3,4-b]indol-1-yl)-3,5-difluorophenyl)acrylic acid]	25 to 250 nM	
C[C@@H]1Cc2c(n(C)c3ccccc23)[C@@H](c2c(F)cc(/C=C/C(=O)O)cc2F)N1C12CC(C1)C2 [Example 26A, (E)-3-(4-((1R,3R)-2-(bicyclo[1.1.1]pentan-1-yl)-3,9-dimethyl-2,3,4,9-tetrahydro-1H-pyrido[3,4-b]indol-1-yl)-3,5-difluorophenyl)acrylic acid]	≥ 250 nM	

The next lines start with results.

IC50 [1]	SMILES	further results
≤ 25 nM	C[C@@H]1Cc2c([nH]c3ccc(O)cc23)[C@@H](c2c(F)cc(/C=C/C(=O)O)cc2F)N1CC(C)(C)F (single isomer, unassigned) [Example 13B]	ERα % degradation [2]: B (B = ERα % degradation <80%)
≤ 25 nM	CC[C@@H]1Cc2c([nH]c3ccccc23)[C@@H](c2c(F)cc(/C=C/C(=O)O)cc2F)N1[C@H]1CCOC1 (single isomer, unassigned) [Example 23A]	
≤ 25 nM	CC[C@H]1Cc2c([nH]c3ccccc23)[C@H](c2c(F)cc(/C=C/C(=O)O)cc2F)N1C12CC(C1)C2 (single isomer, unassigned) [Example 25B]	
≤ 25 nM	CC/C(=C(/c1ccc(/C=C/C(=O)O)cc1)c1ccc2[nH]ncc2c1)c1ccc(F)cc1Cl [ARN810, reference compound]	AUC(0-inf) ([3]; IV, 3.0 mg/kg): 5.9 µM·h; clearance ([3]; IV, 3.0 mg/kg): 19 mL/min/kg; half-life ([3]; IV, 3.0 mg/kg): 282 min; Vd ([3]; IV, 3.0 mg/kg, read-out: Vdss): 1.2 L/kg; bioavailability ([3]; PO 10.0 mg/kg vs IV 3.0 mg/kg): 117%; AUC(0-inf) ([3]; PO, 10.0 mg/kg): 23 µM·h; Cmax ([3]; PO, 10.0 mg/kg): 6.7 µM; Tmax ([3]; PO, 10.0 mg/kg): 1 h; half-life ([3]; PO, 10.0 mg/kg): 414 min
≤ 25 nM	[2H][C@@]1(c2c(F)cc(/C=C/C(=O)O)cc2F)c2[nH]c3ccccc3c2C[C@@H](C)N1C12CC(C1)C2 [Example 11D, (E)-3-(4-((1R,3R)-2-(Bicyclo[1.1.1]pentan-1-yl)-3-methyl-2,3,4,9-tetrahydro-1H-pyrido[3,4-b]indol-1-yl-1-d)-3,5-difluorophenyl)acrylic acid]	
≤ 25 nM	C[C@@H]1Cc2c([nH]c3cc(O)ccc23)[C@@H](c2c(F)cc(/C=C/C(=O)O)cc2F)N1CC(C)(C)F [Example 15A, (E)-3-(3,5-Difluoro-4-((1R,3R)-2-(2-fluoro-2-methylpropyl)-7-hydroxy-3-methyl-2,3,4,9-tetrahydro-1H-pyrido[3,4-b]indol-1-yl)phenyl)acrylic acid]	
≤ 25 nM	C[C@@H]1Cc2c([nH]c3ccccc23)[C@@H](c2c(F)cc(/C=C/C(=O)O)cc2F)N1CC1(F)COC1 [Example 16A, (E)-3-(3,5-Difluoro-4-((1R,3R)-2-((3-fluorooxetan-3-yl)methyl)-3-methyl-2,3,4,9-tetrahydro-1H-pyrido[3,4-b]indol-1-yl)phenyl)acrylic acid]	
≤ 25 nM	C[C@@H]1Cc2c([nH]c3ccccc23)[C@@H](c2c(F)cc(/C=C/C(=O)O)cc2F)N1CC1(C)COC1 [Example 18A, (E)-3-(3,5-Difluoro-4-((1R,3R)-3-methyl-2-((3-methyloxetan-3-yl)methyl)-2,3,4,9-tetrahydro-1H-pyrido[3,4-b]indol-1-yl)phenyl)acrylic acid]	
≤ 25 nM	O=C(O)/C=C/c1cc(F)c(C2c3[nH]c4ccccc4c3C[C@@H](C(F)F)N2C2CCOC2)c(F)c1 (stereo partly drawn) [Example 19A, (E)-3-(4-((3S)-3-(Difluoromethyl)-2-(tetrahydrofuran-3-yl)-2,3,4,9-tetrahydro-1H-pyrido[3,4-b]indol-1-yl)-3,5-difluorophenyl)acrylic acid]	
